Where “and” joins values, the source holds several entries; their conditions need not be identical. Identical values can stand only once.
Columns and labels:
[1] = Crystal; for vapor or sublimation pressure: Calculated from knudsen effusion weight loss; for Normal melting temperature: DTA
[2] = Molar enthalpy of transition or fusion; settings: Crystal; DSC

CC(=O)Nc1ccccc1C(=O)O [2-acetamidobenzoic acid]
[1]
Settings | vapor or sublimation pressure
367.17 K | 8.3e-05 kPa
369.28 K | 0.000109 kPa and 0.000106 kPa and 0.000108 kPa
371.16 K | 0.000128 kPa
373.16 K | 0.00016 kPa and 0.000163 kPa
375.26 K | 0.000207 kPa and 0.00021 kPa
377.16 K | 0.000248 kPa and 0.000255 kPa and 0.000258 kPa
379.19 K | 0.000305 kPa and 0.000303 kPa and 0.000308 kPa
381.29 K | 0.000385 kPa and 0.000373 kPa and 0.000378 kPa
383.16 K | 0.000438 kPa
385.15 K | 0.000577 kPa and 0.000561 kPa and 0.000574 kPa
387.26 K | 0.000697 kPa and 0.000711 kPa and 0.00078 kPa
389.15 K | 0.000829 kPa and 0.00084 kPa

Settings | Molar enthalpy of transition or fusion [kcal/mol] | Normal melting temperature [°C]
[1] | – | 181.96
[2] | 7.01 | –

CC(=O)Oc1ccccc1C(=O)O [2-acetoxybenzoic acid]
[1]
Settings | vapor or sublimation pressure
341.11 K | 0.00012 kPa and 0.000119 kPa
343.24 K | 0.000147 kPa and 0.000158 kPa
345.28 K | 0.000194 kPa and 0.000203 kPa
347.1 K | 0.00023 kPa and 0.000238 kPa
349.24 K | 0.00029 kPa and 0.000305 kPa
351.27 K | 0.000378 kPa and 0.000387 kPa
353.1 K | 0.000478 kPa and 0.000471 kPa
355.28 K | 0.000599 kPa and 0.000643 kPa
357.27 K | 0.000744 kPa and 0.000796 kPa
359.23 K | 0.00089 kPa and 0.000966 kPa
361.11 K | 0.001165 kPa

Settings | Molar enthalpy of transition or fusion [kcal/mol] | Normal melting temperature [°C]
[1] | – | 134.23
[2] | 8.09 | –

CC(=O)Nc1cccc(C(=O)O)c1 [3-(acetylamino)benzoic acid]
[1]
Settings | vapor or sublimation pressure
423.22 K | 0.000156 kPa
425.28 K | 0.000193 kPa and 0.000189 kPa
427.09 K | 0.000223 kPa and 0.000219 kPa
429.23 K | 0.000279 kPa and 0.000283 kPa
431.28 K | 0.000336 kPa and 0.000341 kPa
433.24 K | 0.00041 kPa and 0.000419 kPa
435.1 K | 0.000495 kPa and 0.000496 kPa
437.29 K | 0.000619 kPa and 0.000621 kPa
439.23 K | 0.000751 kPa and 0.000744 kPa
441.1 K | 0.000886 kPa and 0.000907 kPa

Settings | Molar enthalpy of transition or fusion [kcal/mol] | Normal melting temperature [°C]
[1] | – | 249.04
[2] | 10.1 | –

CC(=O)Oc1cccc(C(=O)O)c1 [3-acetoxybenzoic acid]
[1]
Settings | vapor or sublimation pressure
344.16 K | 0.000129 kPa and 0.000124 kPa and 0.000123 kPa
346.15 K | 0.000158 kPa and 0.000163 kPa and 0.000157 kPa
348.2 K | 0.000198 kPa and 0.000199 kPa and 0.000205 kPa
350.13 K | 0.000251 kPa and 0.00025 kPa and 0.000257 kPa
353.17 K | 0.000355 kPa and 0.000357 kPa and 0.00037 kPa
356.21 K | 0.000497 kPa and 0.000499 kPa and 0.00051 kPa
358.16 K | 0.000631 kPa and 0.000652 kPa
360.17 K | 0.000813 kPa and 0.00081 kPa
362.16 K | 0.000967 kPa and 0.000966 kPa and 0.001004 kPa

Settings | Molar enthalpy of transition or fusion [kcal/mol] | Normal melting temperature [°C]
[1] | – | 131.61
[2] | 6.28 | –

Source: the NIST ThermoML archive (doi:10.1016/j.jct.2015.02.010)
